# Patent US20120087864A1, “METHOD FOR DIAGNOSING AND/OR EVALUATING RETINAL DISEASE” (R-TECH UENO, LTD., priority 2010, published 2012)
# Values joined by “and” are separate entries in the source; they are usually repeats but may differ in a detail not shown here. Equal values may be shown once. Marks after values point to notes of the source that are not given here.
# Columns and labels:
# Assay type in all cases: in vivo, human
# [1] = tested on: patient with retinal pigmentosa; test: MP-1 microperimeter retinal sensitivity of central 2 degrees (4 points); conditions: 0.15% solution twice a day; for average retinal sensitivity by MP-1 in central 2 degrees (4 points), change value: change from 0 week
# Experimental: (§1) One drop or two drops of isopropyl unoprostone 0.15 w/v % ophthalmic solution per one time was administered to each eye of patient with retinal pigmentosa daily for 24 weeks, and the following items were examined. 112 patients participated this test.
# Using an combined equipment having a retinal camera and an automatic perimeter, retinal sensitivity of measurement points set preliminarily on the eyeground retina was automatically measured. The feature of MP-1 is that tracking can be automatically performed according to the eye movement, and retinal sensitivity of a local part of the eyeground can be accurately measured by correcting a gap detected during a test. Also, it is possible to serially measure retinal sensitivity at the same site of the eyeground since a test can be performed at the same measurement point of retina as that of the previous test.
# Change in retinal sensitivity of central 2 degrees (4 points) through MP-1 microperimeter
# The value of the average retinal sensitivity by MP-1 in central 2 degrees (4 points) changed from the value at the time of completion of the pre-observation period (0 week) at each measurement time point (time of hospital visiting of subject) was calculated in each eye.
# The retinal sensitivity by MP-1 central 2 degrees (4 points) was measured at a pre-observation period, after 4 weeks, after 8 weeks, after 16 weeks and after 24 weeks. It is estimated that variation (error) due to seasonal variation during measuring for 24 weeks may arise. For the purpose of absolutely evaluating the effect of the drug, in order to grasp an overview including negation of both improvement and aggravation, between-group comparison was made by adding up of a difference (change value) with the pre-observation period in four measurements.
# [2] = tested on: patient with retinal pigmentosa; test: Humphrey visual field test (SITA-Standard, central 10-2) retinal sensitivity (MD value), 24-week placebo-controlled clinical test; conditions: 0.15% solution twice a day; for change value of Humphrey central 10-2 retina sensitivity (MD value): change from before treatment
# Experimental: as §1
# Change in retinal sensitivity through Humphrey visual field test (SITA-Standard, 10-2)
# (§2) The above ophthalmic solution of Formulation Example 1 was used as the test drug.
# (§3) (1) Dosage regimen: Instillation twice* a day, one drop of a first solution was instilled at the time of first instillation and, after 5 minute, one drop of a second solution was instilled into both eyes.
# Since subjective symptoms depend on one eye having better visual function than the other, when both eyes satisfy the all selection criteria, the eye having better desimal visual acuity was adopted as the eye for evaluation of efficacy. When both eyes have the same desimal visual acuity, right eye was adopted as the eye for evaluation of efficacy
# Between-group comparison of the average of Humphrey central 10-2 retina sensitivity (MD value) was made every measurement time point.
# Between-group comparison of the change value of Humphrey central 10-2 retina sensitivity (MD value) was made every measurement time point.
# [3] = tested on: patient with retinal pigmentosa; test: Humphrey visual field test, retinal sensitivity of central 2 degrees (4 points); conditions: 0.15% solution twice a day
# Experimental: as §1
# Change in retinal sensitivity of central 2 degrees (4 points) through Humphrey visual field test
# as §2, §3
# Between-group comparison of the change value of Humphrey central 4 points retinal sensitivity was made every measurement time point.
# [4] = tested on: patient with retinal pigmentosa; test: Safety evaluation: side effects until completion of medication (24 weeks)
# Description: Safety evaluation (1. Adverse event, 2. Side effect, 3. Ophthalmologic examination, Vital signs, Clinical examination result)
# A list of items of the side effect confirmed until completion of medication (24 weeks) in Test Example 1, and the number of appearance cases and the appearance ratio of the side effect of each group are shown in Table 10.
# [5] = tested on: patient with retinal pigmentosa; test: NEI VFQ-25 (Compo 8) vision-related QOL questionnaire; conditions: 0.15% solution twice a day, after 24 weeks minus 0 week
# Experimental: as §1
# Change in The 25-Item National Eye Institute Visual Function Questionnaire (NEI VFQ-25) Compo 8:
# Original NEI VFQ-25 (The 25-item National Eye Institute Visual Function Questionnaire) for evaluation of vision-related QOL of a patient is constituted from visual functions in various living scenes, and 12 subscales (questions of 25 items) for measurement of the degree of restrictions of vision-related physical, mental and social living scenes. In the present test, a questionnaire of Compo 8 constituted from 8 subscales with exception of general health, driving, peripheral vision and ocular pain among the subscales was used. At the time of completion of the pre-observation period (0 week) and completion of the treatment (24 weeks), a change value of score (the value after 24 weeks minus the value at 0 week) was evaluated.
# [6] = tested on: patient with retinal pigmentosa; test: Intraocular pressure (IOP) over the 24-week measurement period; conditions: one drop and two drop groups
# [7] = one drop per time group, after 24 weeks
# [8] = two drops per time group, after 4 weeks
# [9] = two drops per time group, after 8 weeks
# [10] = two drops per time group, after 16 weeks
# [11] = two drops per time group, after 24 weeks
# [12] = one drop per time group, after 4 weeks
# [13] = one drop per time group, after 8 weeks
# [14] = one drop per time group, after 16 weeks
smiles,measurement,setting,value
"CCCCCCCC(=O)CC[C@@H]1[C@@H](C/C=C\CCCC(=O)OC(C)C)[C@@H](O)C[C@H]1O [isopropyl unoprostone, (+)-isopropyl (Z)-7-[(1R,2R,3R,5S)-3,5-dihydroxy-2-(3-oxodecyl)cyclopentyl]hept-5-enoate]","MP-1 central 2 degrees (4 points) average retinal sensitivity: aggravation by 4 dB or more, number of cases (%)",[1]; [7],6 (15.8%) cases (%)
same,"MP-1 central 2 degrees (4 points) average retinal sensitivity: improvement by 4 dB or more, number of cases (%)",[1]; [7],3 (7.9%) cases (%)
same,"MP-1 central 2 degrees (4 points) average retinal sensitivity: no change, number of cases (%)",[1]; [7],29 (76.3%) cases (%)
same,"average retinal sensitivity by MP-1 in central 2 degrees (4 points), change value",[1]; [8],0.5 dB
same,"average retinal sensitivity by MP-1 in central 2 degrees (4 points), change value",[1]; [9],1.013 dB
same,"average retinal sensitivity by MP-1 in central 2 degrees (4 points), change value",[1]; [10],0.713 dB
same,"MP-1 central 2 degrees (4 points) average retinal sensitivity: aggravation by 4 dB or more, number of cases (%)",[1]; [11],1 (2.6%) cases (%) and 1 (2.9%)* cases (%)
same,"MP-1 central 2 degrees (4 points) average retinal sensitivity: improvement by 4 dB or more, number of cases (%)",[1]; [11],6 (17.1%) cases (%)
same,"MP-1 central 2 degrees (4 points) average retinal sensitivity: no change, number of cases (%)",[1]; [11],28 (80.0%) cases (%)
same,"average retinal sensitivity by MP-1 in central 2 degrees (4 points), change value",[1]; [11],1.1^† dB
same,"average retinal sensitivity by MP-1 in central 2 degrees (4 points), comparison of change value","[1]; two drops per time group, change values of four measurements (4, 8, 16, 24 weeks) added up",0.826* dB
same,average of Humphrey central 10-2 retina sensitivity (MD value),"[2]; one drop per time group, 0 week (before treatment)",−14.116 dB
same,average of Humphrey central 10-2 retina sensitivity (MD value),[2]; [12],−13.952 dB
same,average of Humphrey central 10-2 retina sensitivity (MD value),[2]; [13],−14.074 dB
same,change value of Humphrey central 10-2 retina sensitivity (MD value),[2]; [13],0.042 dB
same,average of Humphrey central 10-2 retina sensitivity (MD value),[2]; [14],−13.768 dB
same,change value of Humphrey central 10-2 retina sensitivity (MD value),[2]; [14],0.136 dB
same,average of Humphrey central 10-2 retina sensitivity (MD value),[2]; [7],−13.699 dB
same,change value of Humphrey central 10-2 retina sensitivity (MD value),[2]; [7],0.417 dB
same,average of Humphrey central 10-2 retina sensitivity (MD value),"[2]; two drops per time group, 0 week (before treatment)",−18.376 dB
same,average of Humphrey central 10-2 retina sensitivity (MD value),[2]; [8],−17.671† dB
same,change value of Humphrey central 10-2 retina sensitivity (MD value),[2]; [8],0.831 dB
same,average of Humphrey central 10-2 retina sensitivity (MD value),[2]; [9],−17.810 dB
same,change value of Humphrey central 10-2 retina sensitivity (MD value),[2]; [9],0.696* dB
same,average of Humphrey central 10-2 retina sensitivity (MD value),[2]; [10],−17.341† dB
same,change value of Humphrey central 10-2 retina sensitivity (MD value),[2]; [10],0.777 dB
same,average of Humphrey central 10-2 retina sensitivity (MD value),[2]; [11],−17.411† dB
same,change value of Humphrey central 10-2 retina sensitivity (MD value),[2]; [11],0.891 dB
same,change value of Humphrey central 4 points retinal sensitivity,[3]; [12],−0.178
same,change value of Humphrey central 4 points retinal sensitivity,[3]; [13],0.158
same,change value of Humphrey central 4 points retinal sensitivity,[3]; [14],0.336
same,change value of Humphrey central 4 points retinal sensitivity,[3]; [7],0.334
same,change value of Humphrey central 4 points retinal sensitivity,[3]; [8],0.714
same,change value of Humphrey central 4 points retinal sensitivity,[3]; [9],0.821
same,change value of Humphrey central 4 points retinal sensitivity,[3]; [10],1.253*^†1
same,change value of Humphrey central 4 points retinal sensitivity,[3]; [11],2.009 and 2.009*^†1†2
same,serious side effect,[4]; any group (one drop and two drops per time),no serious side effect
same,"All side effects, number of appearance cases",[4]; one drop per time (39 cases),28 (71.8%) cases (%) and 28 (71.8) cases (%)
same,"Bloodshot eyes, number of appearance cases",[4]; one drop per time (39 cases),1 (2.6) cases (%)
same,"Bloodshot, number of appearance cases",[4]; one drop per time (39 cases),0 (0.0) cases (%)
same,"Dry eye, number of appearance cases",[4]; one drop per time (39 cases),1 (2.6) cases (%)
same,"Eye abnormality, number of appearance cases",[4]; one drop per time (39 cases),0 (0.0) cases (%)
same,"Eye irritation, number of appearance cases",[4]; one drop per time (39 cases),9 (23.1) cases (%)
same,"Eye pruritus, number of appearance cases",[4]; one drop per time (39 cases),1 (2.6) cases (%)
same,"Eye swelling, number of appearance cases",[4]; one drop per time (39 cases),1 (2.6) cases (%)
same,"Foreign body sensation, number of appearance cases",[4]; one drop per time (39 cases),1 (2.6) cases (%)
same,"Hypertrichosis, number of appearance cases",[4]; one drop per time (39 cases),0 (0.0) cases (%)
same,"Irritation of applied site, number of appearance cases",[4]; one drop per time (39 cases),13 (33.3) cases (%)
same,"Macular edema, number of appearance cases",[4]; one drop per time (39 cases),1 (2.6) cases (%)
same,"Macular hole, number of appearance cases",[4]; one drop per time (39 cases),0 (0.0) cases (%)
same,"Punctate keratitis, number of appearance cases",[4]; one drop per time (39 cases),4 (10.3) cases (%)
same,"All side effects, number of appearance cases",[4]; two drops per time (38 cases),21 (55.3%) cases (%) and 21 (55.3) cases (%)
same,"Bloodshot eyes, number of appearance cases",[4]; two drops per time (38 cases),0 (0.0) cases (%)
same,"Bloodshot, number of appearance cases",[4]; two drops per time (38 cases),1 (2.6) cases (%)
same,"Dry eye, number of appearance cases",[4]; two drops per time (38 cases),0 (0.0) cases (%)
same,"Eye abnormality, number of appearance cases",[4]; two drops per time (38 cases),1 (2.6) cases (%)
same,"Eye irritation, number of appearance cases",[4]; two drops per time (38 cases),4 (10.5) cases (%)
same,"Eye pruritus, number of appearance cases",[4]; two drops per time (38 cases),1 (2.6) cases (%)
same,"Eye swelling, number of appearance cases",[4]; two drops per time (38 cases),0 (0.0) cases (%)
same,"Foreign body sensation, number of appearance cases",[4]; two drops per time (38 cases),0 (0.0) cases (%)
same,"Hypertrichosis, number of appearance cases",[4]; two drops per time (38 cases),1 (2.6) cases (%)
same,"Irritation of applied site, number of appearance cases",[4]; two drops per time (38 cases),13 (34.2) cases (%)
same,"Macular edema, number of appearance cases",[4]; two drops per time (38 cases),0 (0.0) cases (%)
same,"Macular hole, number of appearance cases",[4]; two drops per time (38 cases),0 (0.0) cases (%)
same,"Punctate keratitis, number of appearance cases",[4]; two drops per time (38 cases),4 (10.5) cases (%)
same,"change value of VFQ-25 subscale ""vision-related social function""",[5]; one drop per time group,−2.3
same,change value of VFQ-25 summary score,[5]; one drop per time group,−1.1
same,"change value of VFQ-25 subscale ""vision-related social function""",[5]; two drops per time group,6.6*^†
same,change value of VFQ-25 summary score,[5]; two drops per time group,2.69^†
same,decrease of intraocular pressure (IOP) as compared to the placebo,[6],greater decrease in IOP
